Reference: article PMC7057962, “The Two-Species Model of transketolase explains donor substrate-binding, inhibition and heat-activation” (Scientific Reports, 2020)
Like-named read-outs stand apart in the source and are kept apart here.

What was measured:
[1] = biological target: T1, E. coli transketolase (TK; TKhigh / TKlow forms) (Escherichia coli, UniProt P27302, D469T/R520Q/S385Y); experiment: intrinsic fluorescence quenching (ex […] nm, em […] nm), double-Hill fit; assay type: binding
T1 construct: gene tktA; N-terminal His6 tag, expressed in E. coli XL10-gold from pQR791; homodimer; purified sample is a mix of TKhigh (oxidised) and TKlow subunits
T1 sequence (P27302 whole entry S385Y/D469T/R520Q): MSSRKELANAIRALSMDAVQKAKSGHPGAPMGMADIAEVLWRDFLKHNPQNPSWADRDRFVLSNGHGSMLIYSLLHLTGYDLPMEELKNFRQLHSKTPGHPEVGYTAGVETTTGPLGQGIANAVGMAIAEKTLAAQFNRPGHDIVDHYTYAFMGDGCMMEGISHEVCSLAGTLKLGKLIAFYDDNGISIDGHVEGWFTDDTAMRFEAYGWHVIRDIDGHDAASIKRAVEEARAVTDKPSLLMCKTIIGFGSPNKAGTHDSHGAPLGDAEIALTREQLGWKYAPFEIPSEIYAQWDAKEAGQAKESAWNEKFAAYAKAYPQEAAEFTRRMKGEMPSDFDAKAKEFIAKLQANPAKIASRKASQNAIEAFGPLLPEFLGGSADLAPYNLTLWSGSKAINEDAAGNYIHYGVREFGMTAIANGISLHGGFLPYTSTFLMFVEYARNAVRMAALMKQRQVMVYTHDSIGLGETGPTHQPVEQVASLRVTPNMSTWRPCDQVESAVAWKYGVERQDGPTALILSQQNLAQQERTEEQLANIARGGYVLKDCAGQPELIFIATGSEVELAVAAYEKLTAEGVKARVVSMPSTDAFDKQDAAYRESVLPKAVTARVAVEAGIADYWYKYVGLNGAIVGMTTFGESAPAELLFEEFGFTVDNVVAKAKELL

[2] = biological target: T2, E. coli transketolase (TK; TKhigh / TKlow forms) (Escherichia coli, UniProt P27302); experiment: as above; assay type: binding; conditions: read-out: Kd(high)^HPA
T2 construct: gene tktA; N-terminal His6 tag, expressed in E. coli XL10-gold from pQR791; homodimer; purified sample is a mix of TKhigh (oxidised) and TKlow subunits
T2 sequence (P27302 whole entry): as the sequence (P27302 whole entry S385Y/D469T/R520Q) above, with Y385S, T469D, Q520R counted along it

| Kd ([1]; read-out: Kd(high)^HPA) [mM] | Kd [2] [mM] | Kd ([1]; read-out: Kd(high)^TPP) [mM] | Compound |
| --- | --- | --- | --- |
| 3.61 ± 0.31 | 3.42 ± 0.45 | – | O=C(O)C(=O)CO [HPA, β-hydroxypyruvate] |
| – | – | 0.0066 ± 0.00164 | Cc1ncc(C[n+]2csc(CCO[P@](=O)(O)OP(=O)(O)O)c2C)c(N)n1 [TPP, thiamine pyrophosphate] |
